Data set [1] concerns Plasmodium falciparum. The experiment in a line: Antimalarial activity against asynchronous chloroquine-sensitive Plasmodium falciparum 3D7 assessed as parasite growth inhibition infected in erythrocytes incubated for 72 hrs by SYBR green dye based assay. It is filed as functional, organism-based. The settings on record: 3D7, 72 h.
Data set [2] relates to Plasmodium falciparum. The data set is described as follows: Antimalarial activity against asynchronous chloroquine-resistant Plasmodium falciparum K1 assessed as parasite growth inhibition infected in erythrocytes incubated for 72 hrs by SYBR green dye based assay. The settings on record: K1, 72 h. It is filed as functional, organism-based.
The test system of data set [3] is THP-1. The data set is described as follows: Antiinflammatory activity against human THP-1 cells assessed as inhibition of LPS-induced TNFalpha level at 10 uM incubated for 12 to 14 hrs followed by compound replenishment for 1 hr and subsequent LPS treatment for 4 hrs by ELISA assay (reference value: 93.43 %). The data set is classed as functional. Set-up: scale not given: the % may be the effect or the level left. The settings on record: time 17-19 hrs. Background: In an ELISA, binding on a coated surface is turned into a signal by an enzyme label.

Data set [4] relates to HEK-293T. The experiment in a line: Antiinflammatory activity against HEK293T cells assessed as fold increase in TNFalpha-induced NF-kappaB activity at 10 uM incubated for 1 hr followed by TNFalpha treatment for 5 hrs by luciferase based assay (reference value: 17.1). It is filed as functional, Homo sapiens.
For data set [5], the system named is THP-1. The experiment in a line: Cytotoxicity against LPS-stimulated human THP-1 cells assessed as cell viability at 10 uM incubated for 12 hrs followed by LPS treatment measured after 4 hrs by PI staining based flow cytometry. The data set is classed as functional. The settings on record: time 16.0 hrs. On the technique in general: Flow cytometry measures light scatter and fluorescence of single cells or particles in a stream.

A short description of data set [6]: Stability in simulated gastric fluid assessed as compound remaining at pH 1.2 measured upto 120 mins by LC-MS analysis. The settings on record: read-out: Stability. It is filed as ADME.
Data set [7] can be described thus: Stability in simulated intestinal fluid assessed as compound remaining at pH 6.8 measured upto 120 mins by LC-MS analysis. The data set is classed as ADME. The settings on record: read-out: Stability.
Data set [8] concerns Mus musculus. The experiment in a line: Antiinflammatory activity in Swiss albino mouse assessed as inhibition of carrageenan-induced paw edema at 25 mg/kg,po pretreated for 1 hr followed by carrageenan administration measured after 4 hrs relative to control. It is filed as functional. The settings on record: time 5 hrs.
Data set [9] has as its system Mus musculus. The data set is described as follows: Antiinflammatory activity in Swiss albino mouse assessed as inhibition of carrageenan-induced paw edema at 50 mg/kg,po pretreated for 1 hr followed by carrageenan administration measured after 4 hrs relative to control. The data set is classed as functional. The settings on record: time 5 hrs.
The test system of data set [10] is Mus musculus. The experiment in a line: Antiinflammatory activity in Swiss albino mouse assessed as inhibition of carrageenan-induced paw edema at 100 mg/kg,po pretreated for 1 hr followed by carrageenan administration measured after 4 hrs relative to control. It is filed as functional. The settings on record: time 5 hrs.
The subject of data set [11] is Mus musculus. The data set is described as follows: Antiinflammatory activity in Swiss albino mouse assessed as inhibition of carrageenan-induced paw edema at 25 mg/kg,po pretreated for 1 hr followed by carrageenan administration measured after 6 hrs relative to control. The settings on record: time 7 hrs. It is filed as functional.
The test system of data set [12] is Mus musculus. The data set is described as follows: Antiinflammatory activity in Swiss albino mouse assessed as inhibition of carrageenan-induced paw edema at 50 mg/kg,po pretreated for 1 hr followed by carrageenan administration measured after 6 hrs relative to control. It is filed as functional. The settings on record: time 7 hrs.
Data set [13] relates to Mus musculus. The experiment in a line: Antiinflammatory activity in Swiss albino mouse assessed as inhibition of carrageenan-induced paw edema at 100 mg/kg,po pretreated for 1 hr followed by carrageenan administration measured after 6 hrs relative to control. The data set is classed as functional. The settings on record: time 7 hrs. For orientation: Carrageenan injected into the paw causes an acute inflammation.

The subject of data set [14] is THP-1. The data set is described as follows: Downregulation of LPS-induced ERK1/2 phosphorylation in human THP-1 cells at 10 uM incubated for 60 mins followed by LPS treatment 90 mins by […]. It is filed as functional, cell-based. The settings on record: time 150.0 min.
Data set [15] concerns THP-1. The data set is described as follows: Downregulation of LPS-induced JNK1/2 phosphorylation in human THP-1 cells at 10 uM incubated for 60 mins followed by LPS treatment 90 mins by […]. The data set is classed as functional, cell-based. The settings on record: time 150.0 min.
Data set [16] is described as follows: Stability in simulated physiological fluid assessed as compound remaining at pH 7.4 measured upto 120 mins by LC-MS analysis. The settings on record: read-out: Stability. The data set is classed as physicochemical.
Data set [17] can be described thus: Stability in mouse plasma assessed as compound remaining at 10 uM measured upto 120 mins by LC-MS analysis. The data set is classed as ADME, cell-free. The settings on record: read-out: Stability.
Data set [18] in a line: Cmax in fasted Swiss mouse at 50 mg/kg, po measured upto 48 hrs by LC-MS/MS analysis. The data set is classed as ADME, organism-based. The settings on record: in vivo. Set-up: time < 48 hrs, dose 50 mg/kg, route po.
The nature of data set [19]: Tmax in fasted Swiss mouse at 50 mg/kg, po measured upto 48 hrs by LC-MS/MS analysis. The settings on record: in vivo. It is filed as ADME, organism-based.
Data set [20] is described as follows: AUC in fasted Swiss mouse at 50 mg/kg, po measured upto 48 hrs by LC-MS/MS analysis. The settings on record: in vivo. It is filed as ADME, organism-based. Set-up: time < 48 hrs, dose 50 mg/kg, route po.
The nature of data set [21]: Half life in fasted Swiss mouse at 50 mg/kg, po measured upto 48 hrs by LC-MS/MS analysis. The data set is classed as ADME, organism-based. The settings on record: in vivo.
A short description of data set [22]: Clearance in fasted Swiss mouse at 50 mg/kg, po measured upto 48 hrs by LC-MS/MS analysis. The data set is classed as ADME, organism-based. The settings on record: in vivo.
A short description of data set [23]: Volume of distribution in fasted Swiss mouse at 50 mg/kg, po measured upto 48 hrs by LC-MS/MS analysis. The data set is classed as ADME, organism-based. The settings on record: in vivo.
Data set [24] is described as follows: MRT in fasted Swiss mouse at 50 mg/kg, po measured upto 48 hrs by LC-MS/MS analysis. The data set is classed as ADME, organism-based. The settings on record: in vivo.
A short description of data set [25]: Cytotoxicity against African green monkey Vero cells incubated for 3 days by fluorescence based assay. The data set is classed as toxicity, cell-based. The settings on record: chlorocebus sabaeus, time 3 day.

Activity calls are given as the source filed them. The calls are words filed in the database; no cut-off is given here.

With `O=C1OC(O)C(Cl)=C1Cl` (stereo not given) [MUCOCHLORIC ACID], the IC50 in [1] is 4 µM; in [2], greater than 5 µM.

As to `COc1ccc(-c2c(C(=O)Nc3ccccc3)c(C)n(CCC3=CC(=O)OC3O)c2-c2ccc(OC)cc2)cc1` (stereo not given), the half-inhibitory concentration (IC50) in data set [1] was determined as 1.49 µM. The Activity in data set [3] is on record as 85.2%. The “fold change (FC)” value in [4] turned out to be 8.6. Moreover, in data set [5], the result was Active.

For the compound `Cc1c(C(=O)Nc2ccccc2)c(-c2ccc(Cl)cc2)c(-c2ccc(Cl)cc2)n1CC1=CC(=O)OC1O` (stereo not given), the 50% inhibitory concentration (IC50) in data set [1] amounted to 1.87 µM. Moreover, the Activity in data set [3] turned out to be 91.04%. Moreover, the “fold change (FC)” value in [4] is reported as 8.5. In data set [5], the outcome was Active.

For the compound `CCc1ccc(-c2c(-c3ccccc3)c(C(=O)Nc3ccccc3)c(C)n2CCC2=CC(=O)OC2O)cc1` (stereo not given), the IC50 in data set [1] came out at 1.55 µM. The Activity in data set [3] was 89.93%. The “fold change (FC)” value in [4] turned out to be 7.8. The outcome in data set [5] was Active.

Turning to `Cc1c(C(=O)Nc2ccccc2)c(-c2ccc(Cl)cc2)c(-c2ccc(Cl)cc2)n1CCC1=CC(=O)OC1O` (stereo not given), the concentration for half-maximal inhibition (IC50) in data set [1] was 1.47 µM. For the same compound, the Activity in data set [3] was found to be 92.36%. Also, the “fold change (FC)” value in [4] was determined as 9.9. The outcome in [5], in data set [14] and in data set [15] was Active. For the same compound, the remaining at 2 h was 89.5% in data set [6], 84.4% in data set [7] and 87.9% in [16]. The inhibition in vivo at 25 mg/kg in data set [8] is 61%; in data set [11] it was 56%. Moreover, the inhibition in vivo at 50 mg/kg worked out at 62% in [9] and 56% in data set [12]. The inhibition in vivo at 100 mg/kg in data set [10] was determined as 73%; in data set [13], 65%. Also, the remaining at 2 h, 10 µM in data set [17] is 86.5%. Also, the maximum concentration (Cmax) in [18] worked out at 0.11 µg/mL. For the same compound, in data set [19], the Tmax turned out to be 15 min. This compound had an area under the curve (AUC) at 48 h in data set [20] of 0.0869 µg·h/mL. In data set [21], this compound showed a half-life of 52.2 min. In data set [22], this compound had a CL/F of 589 L/h/kg. Also, the Vd in [23] amounted to 754.5 L/kg. For the same compound, in [24], the MRT came to 61.2 min.

Take `Cc1c(C(=O)Nc2ccccc2)c(-c2ccc(F)cc2)c(-c2ccc(F)cc2)n1CCC1=CC(=O)OC1O` (stereo not given): the IC50 in [1] is greater than 5 µM. The Activity in data set [3] is reported as 12.55%. Further, the “fold change (FC)” value in data set [4] turned out to be 9.7. The outcome in data set [5] was Active.

For the compound `Cc1c(C(=O)Nc2ccccc2)c(-c2ccc(F)cc2)c(-c2ccc(F)cc2)n1CC1=CC(=O)OC1O` (stereo not given), in data set [1], the half-maximal inhibitory concentration (IC50) was determined as 4.62 µM. Besides, the Activity in data set [3] is recorded as 32.69%. The “fold change (FC)” value in [4] was 9. Moreover, the outcome in data set [5] was Active.

Consider `CC(C)c1c(C(=O)Nc2ccccc2)c(-c2ccccc2)c(-c2ccc(F)cc2)n1CC[C@@H](O)C[C@@H](O)CC(=O)O` [ATORVASTATIN], for which the values for the half-inhibitory concentration (IC50) in data set [1] and in [2] were 4.6 µM and greater than 5 µM, respectively.

In turn, `CCN(CC)CCCC(C)Nc1ccnc2cc(Cl)ccc12` (stereo not given) [CHLOROQUINE] showed a CC50 at 72 h in [25] of 187 µM.

In the case of `Cc1c(C(=O)Nc2ccccc2)c(-c2ccccc2)c(-c2ccc(Cl)cc2)n1CCC1=CC(=O)OC1O` (stereo not given), the IC50 in data set [1] worked out at 2.19 µM. The Activity in data set [3] stood at 35.92%. In data set [4], the “fold change (FC)” value was determined as 10.4. Further, in [5], the outcome was Active.

Take `CC1=CCC[C@@H]2[C@@](C)(CCC3=CC(=O)O[C@@H]3O)[C@H](C)CC[C@@]12C`: the half-inhibitory concentration (IC50) in data set [1] turned out to be 1.27 µM; in [2] it was 2.88 µM.

As for `COc1ccc(-c2c(-c3ccccc3)c(C(=O)Nc3ccccc3)c(C)n2CCC2=CC(=O)OC2O)cc1` (stereo not given), in [1], the 50% inhibitory concentration (IC50) is greater than 5 µM.

One may read the IC50 as the concentration that gives 50% inhibition. Broadly, the inhibition in vivo is the drop in the measured response relative to a control, in per cent. One may read the Cmax as the peak of the concentration-time curve. As usually defined, the Tmax is the time at which the peak concentration occurs. As usually defined, the AUC is the area under the concentration-time curve, a measure of exposure. By half-life is commonly meant the time in which the quantity being followed falls by half. By CL/F is commonly meant the apparent clearance, not corrected for the fraction that reaches the circulation. A word on the MRT: it is a mean duration of stay, worked out from the concentration-time curve. By CC50 is commonly meant the concentration at which the toxic effect on the cells reaches its halfway point.

The values are drawn from ChEMBL document CHEMBL5360578, “Design, synthesis and evaluation of novel pyrrole-hydroxybutenolide hybrids as promising antiplasmodial and anti-inflammatory agents” (Eur J Med Chem, 2023).
